Experimental data from publication PMC9078123, “Ahmpatinin ^iBu, a new HIV-1 protease inhibitor, from Streptomyces sp. CPCC 202950” (RSC Advances, 2018).
Square brackets hold non-standard residues; d marks the D form. Peptide text beside a SMILES is read from it. * marks the point of attachment. X1 = COc1ccc(C[C@H](N*)[C@@H](O)CC(=O)O)cc1; Sta = CC(C)C[C@H](N)[C@@H](O)CC(=O)O; Isobutyryl = CC(C)C(=O)*; Propionyl = CCC(=O)*

Columns and labels:
HIV-1 protease = biological target: T1, HIV-1 protease (Human immunodeficiency virus type 1 group M subtype B, UniProt P04585); experiment: Inhibition of HIV-1 protease activity; format: biochemical
T1 construct: HIV-1 PR is a 22 kDa dimeric aspartyl protease
Excerpt: Analysis of the inhibition of HIV-1 protease activity

[1] = Cytotoxic activity assay, Hela; conditions: human, HeLa cervical cancer cells
Method: (§1) Cervical cancer (Hela), hepatocellular carcinoma (HepG2), and human osteosarcoma (U2OS) cell lines were obtained from the National Infrastructure of Cell Line Resource (Beijing, China).
(§2) This was measured using the previously described protocol.[34]

[2] = Cytotoxic activity assay, HepG2; conditions: human, HepG2 hepatocellular carcinoma cells
Method: as §1, §2

[3] = Cytotoxic activity assay, U2OS; conditions: human, U2OS osteosarcoma cells
Method: as §1, §2

SMILES | IC50 (HIV-1 protease) [nM] | other results
COC(=O)C[C@H](O)[C@H](CC(C)C)NC(=O)[C@H](C)NC(=O)C[C@H](O)[C@H](CC(C)C)NC(=O)[C@@H](NC(=O)[C@@H](NC(=O)C(C)C)C(C)C)C(C)C [Compound 9, pepsinostreptin methyl ester] (Isobutyryl-VV[Sta]A[Sta]-OMe) | 782 | 
COc1ccc(C[C@H](NC(=O)[C@H](C)NC(=O)C[C@H](O)[C@H](CC(C)C)NC(=O)[C@@H](NC(=O)[C@@H](NC(=O)C(C)C)C(C)C)C(C)C)[C@@H](O)CC(=O)O)cc1 [Compound 1, ^iBu-L-Val^1-L-Val^2-(3S,4S)-Sta-L-Ala-(3S,4S)-Ahmppa] (Isobutyryl-VV[Sta]A-X1) | 1.79 | 
CCC(=O)N[C@H](C(=O)N[C@H](C(=O)N[C@@H](CC(C)C)[C@@H](O)CC(=O)N[C@@H](C)C(=O)N[C@@H](CC(C)C)[C@@H](O)CC(=O)O)C(C)C)C(C)C [Compound 5, pepstatin Pr] (Propionyl-VV[Sta]A[Sta]-OH) | 22.3 | 
COc1cccc2c1C(=O)c1c(O)c3c(c(O)c1C2=O)C[C@@](O)(C(=O)CO)C[C@@H]3O[C@H]1C[C@H](N)[C@H](O)[C@H](C)O1 [doxorubicin] |  | IC50 [1]: 1420 nM; IC50 [2]: 1560 nM; IC50 [3]: 2780 nM
COC(=O)C[C@H](O)[C@H](CC(C)C)NC(=O)[C@H](C)NC(=O)C[C@H](O)[C@H](CC(C)C)NC(=O)[C@@H](NC(=O)[C@@H](NC(C)=O)C(C)C)C(C)C [Compound 7, pepstatin Ac methyl ester] (Ac-VV[Sta]A[Sta]-OMe) | 203 | 
CCC(=O)N[C@H](C(=O)N[C@H](C(=O)N[C@@H](CC(C)C)[C@@H](O)CC(=O)N[C@@H](C)C(=O)N[C@@H](CC(C)C)[C@@H](O)CC(=O)OC)C(C)C)C(C)C [Compound 8, pepstatin Pr methyl ester] (Propionyl-VV[Sta]A[Sta]-OMe) | 139 | 
CC(C)C[C@H](NC(=O)[C@@H](NC(=O)[C@@H](NC(=O)C(C)C)C(C)C)C(C)C)[C@@H](O)CC(=O)N[C@@H](C)C(=O)O [Compound 2, ^iBu-L-Val^1-L-Val^2-(3S,4S)-Sta-L-Ala] (Isobutyryl-VV[Sta]A-OH) | 3190 | 
CC(C)C[C@H](NC(=O)[C@H](C)NC(=O)C[C@H](O)[C@H](CC(C)C)NC(=O)[C@@H](NC(=O)[C@@H](NC(=O)C(C)C)C(C)C)C(C)C)[C@@H](O)CC(=O)O [Compound 6, pepsinostreptin] (Isobutyryl-VV[Sta]A[Sta]-OH) | 9.9 | 
CC(C)CCCCC(=O)N[C@H]1CCN(CC(=O)O)C1=O [Compound 3, (−)-(S)-2-[3-(6-methylheptanamido)-2-oxopyrrolidin-1-yl]acetic acid] | > 10000 | inhibitory activity against HIV-1 protease (in words) (HIV-1 protease; preliminary in vitro assay): inactive
